Experimental data from ChEMBL document CHEMBL1139277, “Synthesis of tyrosinase inhibitory (4-oxo-4H-pyran-2-yl)acrylic acid ester derivatives” (Bioorg Med Chem Lett, 2009).
pIC50: −log10 of the molar value.

What was measured:
B16-F10 [1] = experiment: Inhibition of melanin production in mouse B16F10 cells at 20 ug/ml after 72 hrs relative to control; assay type: functional; conditions: B16-F10, 72 h
B16-F10 [2] = experiment: Inhibition of melanin production in mouse B16F10 cells at 40 ug/ml after 72 hrs relative to control; assay type: functional; conditions: B16-F10, 72 h
B16-F10 [3] = experiment: Cytotoxicity against mouse B16F10 cells at 20 ug/ml after 72 hrs by MTT assay; assay type: functional
B16-F10 [4] = experiment: Cytotoxicity against mouse B16F10 cells at 40 ug/ml after 72 hrs by MTT assay; assay type: functional
Tyrosinase = target: T1, Tyrosinase (Agaricus bisporus, UniProt O42713); experiment: Inhibition of mushroom tyrosinase
T1 sequence (O42713 whole entry): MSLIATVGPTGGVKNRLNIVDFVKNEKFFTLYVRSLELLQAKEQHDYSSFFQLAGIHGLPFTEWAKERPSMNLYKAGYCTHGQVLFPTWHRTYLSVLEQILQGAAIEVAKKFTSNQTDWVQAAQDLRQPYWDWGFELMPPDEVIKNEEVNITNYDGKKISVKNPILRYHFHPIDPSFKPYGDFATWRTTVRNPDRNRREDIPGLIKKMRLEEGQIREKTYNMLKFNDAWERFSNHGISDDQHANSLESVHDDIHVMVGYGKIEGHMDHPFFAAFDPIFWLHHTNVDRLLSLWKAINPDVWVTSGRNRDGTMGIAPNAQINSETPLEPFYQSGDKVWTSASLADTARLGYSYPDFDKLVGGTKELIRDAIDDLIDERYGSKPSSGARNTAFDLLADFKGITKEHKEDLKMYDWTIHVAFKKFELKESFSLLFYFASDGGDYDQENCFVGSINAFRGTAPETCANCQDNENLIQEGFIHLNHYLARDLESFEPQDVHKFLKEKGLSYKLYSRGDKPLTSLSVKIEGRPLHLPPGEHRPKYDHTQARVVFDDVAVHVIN

Row | Compound | inhibition at 20 µg/mL (B16-F10 [1]) | inhibition at 40 µg/mL (B16-F10 [2]) | Activity (B16-F10 [3]) | Activity (B16-F10 [4]) | pIC50 (Tyrosinase)
1 | O=C(/C=C/c1cc(=O)c(O)co1)OCCOCCO | 20.1% | 32.4% | 84.6% | 89.4% | 4.58
2 | COCCOC(=O)/C=C/c1cc(=O)c(O)co1 | 29.6% | 47.8% | 81.1% | 65.4% | 4.01
3 | O=C(/C=C/c1cc(=O)c(O)co1)OCCOCCOCCO | 8.7% | 17.9% | 84.9% | 78.5% | 4.10
4 | O=C(/C=C/c1cc(=O)c(O)co1)OCCO | 30% | 41.6% | 80.5% | 74.8% | 4.13
5 | COCCOCCOCCOC(=O)/C=C/c1cc(=O)c(O)co1 | 11% | 25.4% | 83.9% | 79.7% | 4.17
6 | CCOC(=O)/C=C/c1cc(=O)c(O)co1 | 46.1% | 65% | 72% | 39.2% | 4.44
7 | CC(C)OC(=O)/C=C/c1cc(=O)c(O)co1 | 19.5% | 69.8% | 50.9% | 37.4% | 4.10
8 | CCCCCCCCOC(=O)/C=C/c1cc(=O)c(O)co1 | 25% | 54.6% | 85% | 62.5% | < 3.40
9 | COCCOCCOC(=O)/C=C/c1cc(=O)c(O)co1 | 19.5% | 24% | 88.7% | 83.4% | 4.23
